{
  "source": "patent US20120003183A1",
  "about": "“ADDITION SALTS OF TROMETHAMINE WITH AZABIPHENYLAMINOBENZOIC ACID DERIVATIVES AS DHODH INHIBITORS” (priority 2009, published 2012)",
  "type_in_all_cases": "physicochemical",
  "key": {"Water-solubility test": {"assay": "Water-solubility test", "conditions": "for Water Solubility @ 25° C. (mg/mL as acid): 25° C. (room temperature)", "experimental": "The solubility of the of Examples 1-3 in water at room temperature was determined together with the solubility of the corresponding free acids."}, "[1]": {"assay": "Dynamic Vapour Sorption (DVS) moisture sorption/desorption", "conditions": "for Mass increase at 80% relative humidity (DVS): 80% RH; for Mass increase at 90% relative humidity (DVS): 90% RH; for Hygroscopicity / Hysteresis in DVS sorption/desorption: result in words", "experimental": "Dynamic Vapour Sorption (DVS) profiles were obtained using an Igasorp Hiden Isochema instrument (serial number IGA-SA-066). After an initial stabilization period, at least two isotherms (at 25° C.) were obtained for each sample: a moisture sorption from 0 to 95% relative humidity and moisture desorption from 95% relative humidity to dryness. Both isotherms were performed in 10% humidity steps, with a minimum time of 10 minutes and a maximum time of 30 minutes for each step."}, "[2]": {"assay": "Differential scanning calorimetry (DSC) thermogram, stability", "conditions": "heated 30 to 350° C. at 10° C./min; result in words", "experimental": "The differential scanning calorimetry (DSC) thermograms analyses were obtained using a DSC-821 Mettler-Toledo instrument, serial number 5117423874. Samples were weighed into an aluminium pan, an aluminium lid placed on top of the sample and compressed with a brass rod. Samples were equilibrated at 30° C. and heated at 10° C./min to 350° C. The instrument was calibrated using indium and zinc standards."}},
  "note": "Where a name gives a salt, the structure may show the parent alone.",
  "data": [
    {"smiles": "O=C(O)c1cc(C2CC2)ccc1Nc1cnc(-c2c(F)cccc2F)nc1", "note": "[Example 1, 5-cyclopropyl-2-{[2-(2,6-difluorophenyl)pyrimidin-5-yl]amino}benzoic acid, tromethamine salt]", "values": [
      {"measurement": "Solubility in water compared with the corresponding free acids", "setting": "Water-solubility test; result in words", "result": "Particularly good results"},
      {"measurement": "Water Solubility @ 25° C. (mg/mL as acid)", "setting": "Water-solubility test", "result": 1.780, "unit": "mg/mL as acid"},
      {"measurement": "Mass increase at 80% relative humidity (DVS)", "setting": "[1]; 25° C.", "result": 1.2, "unit": "%"},
      {"measurement": "Mass increase at 90% relative humidity (DVS)", "setting": "[1]; 25° C.", "result": 6.1, "unit": "%"},
      {"measurement": "Hygroscopicity", "setting": "[1]", "result": "not hygroscopic"},
      {"measurement": "Hysteresis in DVS sorption/desorption", "setting": "[1]", "result": "no hysteresis"},
      {"measurement": "Stability (polymorph conversion / decomposition) from DSC thermogram", "setting": "[2]", "result": "high stability"}
    ]},
    {"smiles": "O=C(O)c1cc(C2CC2)ccc1Nc1cnc(-c2ccccc2C(F)(F)F)nc1", "note": "[Example 2, 5-cyclopropyl-2-{[2-(2-(trifluoromethyl)phenyl)pyrimidin-5-yl]amino}benzoic acid, tromethamine salt]", "values": [
      {"measurement": "Water Solubility @ 25° C. (mg/mL as acid)", "setting": "Water-solubility test", "result": 0.139, "unit": "mg/mL as acid"},
      {"measurement": "Mass increase at 80% relative humidity (DVS)", "setting": "[1]; 25° C.", "result": 3.4, "unit": "%"},
      {"measurement": "Mass increase at 95% relative humidity (DVS)", "setting": "[1]; 95% RH, 25° C.", "result": 7.0, "unit": "%"},
      {"measurement": "Hygroscopicity", "setting": "[1]", "result": "slightly hygroscopic"},
      {"measurement": "Hysteresis in DVS sorption/desorption", "setting": "[1]", "result": "no hysteresis"},
      {"measurement": "Stability (polymorph conversion / decomposition) from DSC thermogram", "setting": "[2]", "result": "high stability"}
    ]},
    {"smiles": "Cc1ccc(Nc2ccc(-c3cccc(F)c3F)nc2)c(C(=O)O)c1", "note": "[Example 3, 5-methyl-2-{[6-(2,3-difluorophenyl)pyridin-3-yl]amino}benzoic acid, tromethamine salt]", "values": [
      {"measurement": "Water Solubility @ 25° C. (mg/mL as acid)", "setting": "Water-solubility test", "result": 0.540, "unit": "mg/mL as acid"},
      {"measurement": "Mass increase at 80% relative humidity (DVS)", "setting": "[1]; 25° C.", "result": 1.8, "unit": "%"},
      {"measurement": "Mass increase at 90% relative humidity (DVS)", "setting": "[1]; 25° C.", "result": 5.1, "unit": "%"},
      {"measurement": "Hygroscopicity", "setting": "[1]", "result": "not hygroscopic"},
      {"measurement": "Hysteresis in DVS sorption/desorption", "setting": "[1]", "result": "no hysteresis"},
      {"measurement": "Stability (polymorph conversion / decomposition) from DSC thermogram", "setting": "[2]", "result": "high stability"}
    ]},
    {"smiles": "O=C(O)c1cc(C2CC2)ccc1Nc1cnc(-c2c(F)cccc2F)nc1", "note": "[Example C1, 5-cyclopropyl-2-{[2-(2,6-difluorophenyl)pyrimidin-5-yl]amino}benzoic acid, reference compound]", "values": [
      {"measurement": "Water Solubility @ 25° C. (mg/mL as acid)", "setting": "Water-solubility test", "result": 0.030, "unit": "mg/mL as acid"}
    ]},
    {"smiles": "O=C(O)c1cc(C2CC2)ccc1Nc1cnc(-c2ccccc2C(F)(F)F)nc1", "note": "[Example C2, 5-cyclopropyl-2-{[2-(2-(trifluoromethyl)phenyl)pyrimidin-5-yl]amino}benzoic acid, reference compound]", "values": [
      {"measurement": "Water Solubility @ 25° C. (mg/mL as acid)", "setting": "Water-solubility test", "result": 0.003, "unit": "mg/mL as acid"}
    ]},
    {"smiles": "Cc1ccc(Nc2ccc(-c3cccc(F)c3F)nc2)c(C(=O)O)c1", "note": "[Example C3, 5-methyl-2-{[6-(2,3-difluorophenyl)pyridin-3-yl]amino}benzoic acid, reference compound]", "values": [
      {"measurement": "Water Solubility @ 25° C. (mg/mL as acid)", "setting": "Water-solubility test", "result": 0.007, "unit": "mg/mL as acid"}
    ]}
  ]
}
